# Reference: article PMC6978316, “Development of chimeric peptides to facilitate the neutralisation of lipopolysaccharides during bactericidal targeting of multidrug-resistant Escherichia coli” (Communications Biology, 2020)
# Where a SMILES comes first, the peptide text is derived from it. Bridges are numbered along the chain shown (N, C = ends).
# What was measured:
# MDR E. coli CVCC195 [1] = assay: SEM and TEM, cell morphology and ultrastructure; assay type: cell-based, Escherichia coli; details: E. coli CVCC195, 4 × MIC, 2 h; at least 200 cells scored; manuscript lines quoted in the peer review file
# Procedure: SEM was used to examine the ultrastructural changes in bacteria treated with peptides. […] PBS was used as the negative control. After centrifugation, the bacterial precipitation was added with 2.5% glutaraldehyde and the cells were fixed at 4 °C for 24 h. After ethanol dehydration, drying and coating, samples were visualized by a QUANTA200 SEM (FEI, Philips, Netherlands)[65].
# The processing and preparation of TEM samples was similar to that of SEM until glutaraldehyde fixation. After washing with PBS, bacterial cells were fixed in 1% […] buffer for 1 h, dehydrated in a series of acetone (50–100%) and embedded, followed by preparation into ultra-thin sections and staining with 1% uranyl acetate. […] At least 200 bacterial cells were visualized and scored for the observed characteristics.
# [2] = test system: binding of FITC-labeled LPS to RAW 264.7 cells; assay: Binding of FITC-labeled LPS to macrophages (flow cytometry); assay type: cell-based, mouse; details: FITC-LPS 100 μg per ml, 0.1 μM peptide 1 h
# Procedure: Similarly, after an incubation with FITC-labeled LPS and washing with medium, cells were incubated with rhodamine-labeled A6 or G6 (0.1 μM) at 37 °C for 1 h. After washing again, the effects of peptides on the binding of FITC-labeled LPS to the cells were analyzed by CLSM and flow cytometry, respectively.
# binding of LPS to LBP = assay: Binding of LPS to LBP on LPS-immobilized plate (ELISA); assay type: biochemical; details: mean of n = 3
# Procedure: The 96-well microtiter plates were coated with 4 ng per ml LPS (0.1 M Na2CO3 and 20 mM EDTA, pH 9.6, 50 μl per well) overnight at 4 °C, washed three times with PBST, and blocked with PBS (containing 1% BSA) for 2 h. After washing with PBST again, the plates were incubated at 37 °C for 1 h with different concentrations of peptides (A6, G6, or N6), which were dissolved in Dulbecco's Modified Eagle's (DMEM) medium (containing 10% FBS). After washing, cells were incubated with anti-LBP mAb 6G3 (ThermoFisher) for 1 h at 37 °C and HRP-conjugated rabbit anti-mouse IgG for 1 h at room temperature, respectively. Tetramethylbenzidine (TMB) solution was then added and incubated for 25–30 min. Finally, the reaction was stopped by addition of 0.5 M H2SO4, and the absorbance was measured at 450 nm[50].
# NF-κB p-p65 subunit = assay: Western blotting of lung tissues, p-p65/p65; assay type: in vivo, mice; details: for densitometric analysis of p-p65/p65 ratio: LPS + substance, Mean; for inhibition of LPS-induced translocation of the NF-κB p-p65 subunit: lung tissue 8 h, LPS 13.5 mg per kg, western blotting, densitometry
# Procedure: (§1) Additionally, the mice were sacrificed at 8 h and the lung tissues were homogenized and suspended in […] HEPES buffer for 20 min according to standard procedures. After centrifugation at 4 °C for 20 min (12,000 rpm), the protein levels of supernatants were quantified using a Bradford protein assay kit. A total of 30 μg proteins were analyzed on an 8–12% sodium dodecyl sulfate-polyacrylamide gel electrophoresis (SDS-PAGE) gel and were immunoblotted onto PVDF membranes, followed by an incubation with the primary antibodies of p65, p-p65, extracellular signal-regulated kinase (ERK)1/2, p-ERK1/2, and IκBα overnight at 4 °C. After washing, the blots were incubated with the peroxidase conjugated goat-rabbit or goat-mouse antibodies. Relative protein expression levels were quantified by a densitometric measurement of chemiluminescence (ECL) reaction band. β-actin was used as the internal reference.
# MDR E. coli CVCC195 [3] = assay: Time-killing curves (bactericidal kinetics); assay type: cell-based, Escherichia coli; details: 1 × or 2 × MIC, MHB, 37 °C
# Procedure: The bactericidal effect of peptides was investigated according to previous methods. […] Physiological saline was added as a control. Bacterial samples (100 μl) were removed at different time points (0, 0.5, 1, 2, 4, 6, 8, 10, and 12 h) and were counted on MH solid plates. The time-killing curve of A6 and G6 was plotted.
# E. coli LPS = assay: BODIPY-TR-cadaverine (BC) displacement assay; assay type: binding, Escherichia coli; details: 100 μM
# Procedure: The affinity of SCPs (A6, G6, and N6) to E. coli LPS was detected by the fluorescent BC probe. The binding of fluorescent probe with LPS can cause fluorescence quenching. When peptides bind to LPS, BC probe can be replaced, which can result in an increase in fluorescence. Equal volumes of LPS (40 μg per ml) and BC probe (10 μM) in 50 mM Tris buffer (pH 7.4) were mixed and added into a black 96-well microtiter plate (180 μl mixture per well), followed by the addition of different concentrations of A6, G6, or N6 (20 μl per well). Ampicillin and PMB were used as the negative and positive control, respectively. Changes in fluorescence were measured by a fluorescence spectrophotometry at room temperature (excitation: 580 nm, emission: 620 nm) and the BC displacement rate was calculated.
# LPS-induced lung injury = assay: Protection of lung tissues from LPS (histology); assay type: in vivo; details: LPS-challenged mice, 0.25 μmol per kg
# Procedure: The mice were treated with N6 (0.25 μmol per kg), A6 (0.25 μmol per kg), G6 (0.25 μmol per kg), and PMB (10 μmol per kg), respectively after the intraperitoneal injection of LPS at a concentration of LD100. The lung tissues were taken at 1 d and 6 d, respectively, washed with PBS and placed in 4% paraformaldehyde for 24 h at 4 °C. After washing with PBS, the tissues were dehydrated by a series of different concentrations of ethanol (75%, 85%, 90%, and 95%) and were immersed in xylene for paraffin embedding. After sectioning, the samples were stained with hematoxylin and were observed by a light microscope. The mice challenged with LPS and PBS served as the negative and blank control, respectively.
# MDR E. coli CVCC195 [4] = assay: Thermal stability, residual antibacterial activity (inhibition zone); assay type: physicochemical, Escherichia coli; details: mean of n = 3
# Procedure: The N6, A6, and G6 solutions were treated at different temperatures (20–100 °C) for 1 h, dissolved and incubated at different pH values (2–10) for 3 h, or incubated with trypsin or pepsin for 4 h. The inhibition zone diameters were measured after incubation at 37 °C for 18–24 h.
# IκBα = assay: Western blotting of lung tissues, IκBα/β-actin; assay type: in vivo, mice; details: for densitometric analysis of IκBα/β-actin ratio: LPS + substance, Mean; for effect on LPS-induced IκBα levels: lung tissue 8 h, LPS 13.5 mg per kg, western blotting
# Procedure: as §1
# ERK1/2 phosphorylation = assay: Western blotting of lung tissues, p-ERK1/2/ERK1/2; assay type: in vivo, mice; details: for densitometric analysis of p-ERK1/2/ERK1/2 ratio: LPS + substance, Mean; for attenuation of ERK1/2 phosphorylation: lung tissue 8 h, LPS 13.5 mg per kg, western blotting, densitometry
# Procedure: as §1
# [5] = 0.625 μM, LPS-coated plate, peptide in DMEM + 10% FBS, 37 °C, 1 h, anti-LBP mAb, OD450
Compound,"abnormal cells in TEM (lysis, non-uniform cytoplasmic electron and morphologically abnormal cells) (MDR E. coli CVCC195 [1])",inhibition rate of FITC-labeled LPS binding to RAW 264.7 cells [2],"LPS-LBP binding (relative), Mean (binding of LPS to LBP; [5])","LPS-LBP binding (relative), Mean (binding of LPS to LBP; 1.25 μM)","LPS-LBP binding (relative), Mean (binding of LPS to LBP; 2.5 μM)","LPS-LBP binding (relative), Mean (binding of LPS to LBP; 5 μM)","LPS-LBP binding (relative), Mean (binding of LPS to LBP; 10 μM)","LPS-LBP binding (relative), Mean (binding of LPS to LBP; 20 μM)","LPS-LBP binding (relative), Mean (binding of LPS to LBP; 40 μM)",densitometric analysis of p-p65/p65 ratio (NF-κB p-p65 subunit),inhibition of LPS-induced translocation of the NF-κB p-p65 subunit (NF-κB p-p65 subunit),time to completely kill E. coli CVCC195 (MDR E. coli CVCC195 [3]),BC displacement ratio (E. coli LPS),densitometric analysis of IκBα/β-actin ratio (IκBα),effect on LPS-induced IκBα levels (IκBα),densitometric analysis of p-ERK1/2/ERK1/2 ratio (ERK1/2 phosphorylation),attenuation of ERK1/2 phosphorylation (ERK1/2 phosphorylation),other results
CC(C)[C@@H]1NC(=O)CNC(=O)[C@H](CC(N)=O)NC(=O)[C@H](CCCNC(=N)N)NC(=O)[C@H](Cc2ccc(O)cc2)NC(=O)[C@H](C(C)C)NC(=O)[C@@H](NC(=O)[C@@H](NC(=O)[C@H](CC(N)=O)NC(=O)[C@H](Cc2c[nH]c3ccccc23)NC(=O)[C@H](C)NC(=O)[C@H](Cc2ccccc2)NC(=O)CN)C(C)C)CSSC[C@@H](C(=O)N[C@@H](Cc2c[nH]cn2)C(=O)N[C@@H](CCCNC(=N)N)C(=O)N[C@@H](CCCNC(=N)N)C(=O)N[C@@H](C)C(=O)N[C@@H](CC(N)=O)C(=O)O)NC(=O)[C@H](C(C)C)NC(=O)[C@H](CCCNC(=N)N)NC1=O [N6] (H-GFAWNVCVYRNGVRVCHRRAN-OH; disulfide 7-16; N-terminus and C-terminus assumed),19%,8%,0.82,1.017,0.8065,0.8105,0.7607,0.6457,0.5608,0.9793,5%,4 h,90.5%,1.158,promoted LPS-induced IκBα levels,0.9271,16.1%,"lung histology at 1 d (LPS-induced lung injury): partial alleviation of tissue swelling and injury; lung histology at 6 d (LPS-induced lung injury): no pathological changes; antibacterial activity after heat treatment (inhibition zone diameter), Mean (MDR E. coli CVCC195 [4]; 20℃ for 1 h, inhibition zone vs E. coli CVCC195 after 37 °C 18–24 h): 1.935; antibacterial activity after heat treatment (inhibition zone diameter), Mean (MDR E. coli CVCC195 [4]; 40℃ for 1 h, inhibition zone vs E. coli CVCC195): 1.912; antibacterial activity after heat treatment (inhibition zone diameter), Mean (MDR E. coli CVCC195 [4]; 60℃ for 1 h, inhibition zone vs E. coli CVCC195): 1.95; antibacterial activity after heat treatment (inhibition zone diameter), Mean (MDR E. coli CVCC195 [4]; 80℃ for 1 h, inhibition zone vs E. coli CVCC195): 1.964; antibacterial activity after heat treatment (inhibition zone diameter), Mean (MDR E. coli CVCC195 [4]; 100℃ for 1 h, inhibition zone vs E. coli CVCC195): 1.917"
polymyxin B [PMB],1%,13.5%,0.8274,0.5768,0.4491,0.3343,0.393,0.3466,0.2168,0.01553,98.4%,≤ 1 h,83.7%,1.0324,promoted LPS-induced IκBα levels,1.579,moderately promoted the ERK1/2 phosphorylation,–
